In US11229608B2 (priority 2019, dated 2022):
Entries after “also recorded” stand apart in the source; their conditions may differ.

System: ornamental vinca (vincire) plants
Experiment: Phytotoxicity assessment on vinca plants after foliar application
Type: in vivo
Parameters: key to Phytotoxicity rating: −: non-phytotoxic; +: minimal phytotoxic; ++: moderate phytotoxic; +++: heavy phytotoxic
Details: 72 hours; for Phytotoxicity rating: visual
Method: Ornamental vinca plants are susceptible to metal phytotoxicity such as Cu and used as industry standard. 3 plants were foliar sprayed with each treatments and controls at three different rates, 300 ppm, 600 ppm and 1,000 ppm. Test solutions were foliar applied using hand-operated pump mist sprayer till run off. Afterwards, plants were placed in plant growth chamber (Panasonic MLR-325H-PA) programmed to simulate summer conditions (maximum temperature set at 31° C.). Visual observations were conducted after 72 hours application to assess the overall plant health and phytotoxicity rating.
The assessment was done visually based on size and number of burns on plants after 72 hours of foliar application. Vinca (vincire) plant phytotoxicity rating on a scale of “−” non-phytotoxic, “+” minimal phytotoxic, “++” moderate phytotoxic, and (+++) heavy phytotoxic.

## O=[N+]([O-])[O-].O=[N+]([O-])[O-].[Cu+2] [Copper nitrate]
1,000 μg/ml (ppm)
  phytotoxicity (in words): severely phytotoxic
Metal concentration 1000 μg/ml
  Phytotoxicity rating: +++

## O=[N+]([O-])[O-].O=[N+]([O-])[O-].[Zn+2] [Zinc nitrate]
300 μg/ml
  phytotoxicity (in words): non-phytotoxic
600 μg/ml
  phytotoxicity (in words): moderately phytotoxic; also recorded: minimally phytotoxic
1,000 μg/ml (ppm)
  phytotoxicity (in words): moderately phytotoxic
Metal concentration 300 μg/ml
  Phytotoxicity rating: −
Metal concentration 600 μg/ml
  Phytotoxicity rating: +
Metal concentration 1000 μg/ml
  Phytotoxicity rating: ++
